How the values were obtained:
[1] = system: Advanced Solid Tumors; assay: Dose escalation study of the Compound of the Invention in adult patients with advanced solid tumors (Phase I); assay type: in vivo
Source text: In this study, the Compound of the Invention was given orally, continuously, in 28-day cycles until disease progression, unacceptable toxicity, or other discontinuation criteria were met.

[2] = system: cancer stem cell markers; assay: Cancer stem cell markers in biopsied tumor tissue of study patients; assay type: in vivo, human
Experimental: Escalating doses from 10 mg to 450 mg once daily were administered to 26 patients. Maximum tolerated dose (MTD) was not reached. […] Of 20 evaluable patients, 11 (55%) had stable disease (SD) with a median time to progression of 16 weeks.
Encouraging signs of anti-tumor activity have been observed in pretreated patients with advanced cancer.

[3] = system: nuclear STK33; assay: Needle biopsy tumor samples before and after 28 days treatment, phase I patients: nuclear STK33 staining; assay type: in vivo, human; details: after 28 days treatment, patient with positive NANOG and STK33 staining
Experimental: (§1) Understanding the clinical relevance of the stemness markers and identifying predictive biomarkers assists clinical development by selecting patients that will most likely to derive clinical benefit from treatment with the Compound of the Invention. In current studies, we studied stemness gene marker in biopsy tumor as well as archival tumor samples from patients. […] Archival tissue from patients receiving the Compound of the Invention was analyzed via immunohistochemistry to determine whether response to the drug was correlated with either NANOG or STK33. […] Importantly, 90.9% of the tumors with STK33 nuclear staining were also positive for nuclear NANOG staining and there was a significant correlation between nuclear STK33 and nuclear NANOG (P<0.0022).

[4] = system: nuclear NANOG; assay: Needle biopsy tumor samples before and after 28 days treatment, phase I patients: nuclear NANOG staining; assay type: in vivo, human; details: after 28 days treatment, patient with positive NANOG and STK33 staining
Experimental: as §1

CCN(CC)CCNC(=O)c1c(C)[nH]c(/C=C2\C(=O)Nc3ccc(-c4csc(-c5ccccc5)n4)cc32)c1C [Compound of the Invention]
Patients with tumor regression and/or prolonged stable disease (≧16 weeks), percent [1]: 50%
Grade 3 diarrhea, number of subjects ([1]; 450 mg once daily): 2 subjects
Number of Patients with minor regression or SD ≧16 wks. ([1]; Colorectal Cancer, 5 patients evaluable): 3
Number of Patients with minor regression or SD ≧16 wks. ([1]; Gastric/GEJ Adenocarcinoma, 1 patient evaluable): 1
Number of Patients with minor regression or SD ≧16 wks. ([1]; Head & Neck Cancer, 2 patients evaluable): 2
Number of Patients with minor regression or SD ≧16 wks. ([1]; Hepatocellular Carcinoma, 2 patients evaluable): 1
Number of Patients with minor regression or SD ≧16 wks. ([1]; Non-Small Cell Lung Cancer, 1 patient evaluable): 1
Number of Patients with minor regression or SD ≧16 wks. ([1]; Pancreatic Neuroendocrine, 1 patient evaluable): 1
Number of Patients with minor regression or SD ≧16 wks. ([1]; Renal Cell Carcinoma, 1 patient evaluable): 1
Maximum tolerated dose (MTD) ([1]; escalating doses 10 mg to 450 mg once daily, oral, 28-day cycles, 26 patients): not reached
Adverse events ([1]; including grade 1, 2 diarrhea, abdominal cramping, nausea, anorexia): mild GI adverse events
Patients with stable disease (SD), number ([1]; of 20 evaluable patients): 11
Patients with stable disease (SD), percent ([1]; of 20 evaluable patients): 55%
Patients with tumor regression and/or prolonged stable disease (≧16 weeks), number ([1]; of those patients with SD): 10
Recommended Phase II Dose (RP2D) ([1]; once daily, oral): 300 mg
Pharmacokinetic exposure relative to predicted therapeutic level ([1]; oral, once daily): well above the predicted therapeutic level
Plasma concentration versus dose ([1]; oral, once daily): dose-dependent increases in plasma concentration up to 300 mg once daily
Tolerability ([1]; oral, once daily, 10 mg to 450 mg): well tolerated
Overall survival ([1]; patients with high levels of nuclear STK33 in archival tissue, P<0.0097): improved
Median progression free survival (PFS) ([1]; patients with high levels of nuclear STK33 in archival tissue, P<0.0273): improved
Median time to progression ([1]; patients with stable disease): 16 weeks
Inhibition of cancer stem cell markers [2]: inhibition of cancer stem cell markers was observed
Reduction of nuclear STK33 [3]: potent in reducing nuclear NANOG and STK33
Reduction of nuclear NANOG [4]: potent in reducing nuclear NANOG

From patent US9795595B2, “Methods for treating cancer” (Boston Biomedical, Inc., priority 2014, dated 2017)
